The values below come from US20220315933A1, “SYSTEMS AND METHODS FOR SINGLE-STRAND BREAK SIGNALING AND REPAIR IN A CELL-FREE SYSTEM AND METHODS OF IDENTIFYING MODULATORS OF SINGLE-STRAND BREAK SIGNALING AND REPAIR” (University of North Carolina Charlotte, priority 2017, published 2022).

Experiment [1] concerns ATR-Chk1 DDR pathway. The experiment is described as follows: Plasmid-induced Chk1 phosphorylation in NPE (immunoblotting). In kind it is biochemical, Xenopus laevis. How it is done: After 30-min incubation, Chk1 phosphorylation, RPA32 phosphorylation, and Rad17 phosphorylation were examined via immunoblotting analysis as indicated in the image in FIG. 9A. […] Samples were examined via immunoblotting analysis as illustrated in FIG. 9B. For FIG. 9C, CTL or SSB plasmid was added to mock- or Pol alpha-depleted HSS. After 30-min incubation, samples were analyzed via immunoblotting analysis, as illustrated.
(§1) The care and use of Xenopus laevis was approved by the Institutional Animal Care and Use Committee (IACUC) of the University of North Carolina at Charlotte. The preparation of Xenopus LSS, HSS, and NPE were described previously (35,36,39, which are hereby incorporated by reference herein). […] DNA synthesis analysis was performed as previously described (11,35, which are hereby incorporated by reference herein). ImageQuat software was used to quantify the DNA synthesis from HSS/NPE system. […] DNA-bound fractions from the HSS system were isolated after spinning extracts through a sucrose cushion (0.9 M sucrose, 2.5 mM MgCl2, 50 mM KCl, 10 mM HEPES, pH7.7) at 10,000 rpm for 2 minutes at 4° C. with a swinging bucket.
On the technique in general: Immunoblotting shows a protein as a band on a membrane.

The next experiment deals with U2OS cells. The experiment is described as follows: Hydrogen peroxide-induced ATR-Chk1 DDR in human U2OS cells (immunoblotting). It counts as cell-based. The note with it: asynchronized U2OS cells; VE-822 5 μM 1 hour, then hydrogen peroxide 1.25 mM 4 hours. As to the method:
FIGS. 11A-11B illustrate that hydrogen peroxide induces Chk1 phosphorylation and RPA32 phosphorylation in an ATR-dependent manner in human U2OS cells. FIG. 11A is a digital image of immunoblotting analysis of asynchronized U2OS cells treated with H2O2 and/or VE-822. Cell lysates were analyzed via immunoblotting analysis as indicated. G1 synchronized U2OS cells were treated with H2O2 and/or VE-822. Cell lysates were analyzed via immunoblotting analysis as indicated and illustrated in FIG. 11B.
Human U2OS cells were purchased from the American Type Culture Collection (ATCC) and cultured in Dulbecco's Modified Eagle Medium (DMEM, Life Technologies) supplemented with 10% fetal bovine serum (FBS, Invitrogen), penicillin (100 U/mL) and streptomycin (100 μg/mL, Life Technologies) in incubator at 37° C. and 5% CO2. […] Cells were treated with VE-822 (5 μM) in culture medium for 1 hour followed by hydrogen peroxide treatment (1.25 mM) for 4 hours. Then cells were collected and split for immunoblotting analysis and FACS analysis. For immunoblotting analysis, equal total proteins of cell lysates (10 μg per lane) were loaded and Tubulin was used for loading control. For FACS analysis, cells were further fixed and stained with DAPI followed by cell cycle profiling using FACS machine (BD LSRFortessa) following manufacturer's standard protocol.

Experiment [2] has as its system ATR-Chk1 DDR pathway. The experiment is described as follows: Defined SSB plasmid-induced checkpoint signaling in Xenopus HSS system (immunoblotting). In kind it is biochemical, Xenopus laevis. To be noted: for SSB-induced Chk1 phosphorylation (Chk1 P-S344): HSS with SSB plasmid 75 ng/μL, 30 min incubation, inhibitor added. How it is done:
CTL or SSB plasmid was added to HSS at different concentrations as indicated, and incubated for 30 minutes. Extracts were examined via immunoblotting analysis for Chk1 phosphorylation (i.e., Chk1 P-Ser344) and total Chk1 (FIG. 8A). CTL or SSB plasmid was added to HSS at a final concentration of 75 ng/μL. After different time of incubation at room temperature, the extracts were examined via immunoblotting analysis (FIG. 8B). ATR inhibitor VE-822, ATM inhibitor KU55933, DNA-PK inhibitor NU7441, or recombinant geminin was added to HSS supplemented with CTL or SSB plasmid at a final concentration of […] for 30 minutes. Geminin or roscovitine was added to HSS supplemented with sperm chromatin and hydrogen peroxide. After a 45-min incubation, extracts were examined via immunoblotting analysis as indicated (FIG. 8F). CTL, SSB, or DSB plasmid was added to HSS at different concentrations as indicated. Samples were examined via immunoblotting analysis (FIG. 8G).
CTL or SSB plasmid was added to HSS with the presence or absence of VE-822. After 30-min incubation, Chk1 phosphorylation, RPA32 phosphorylation, and Rad17 phosphorylation were examined via immunoblotting analysis as indicated in the image in FIG. 9A. CTL or SSB plasmid was added to NPE with the presence or absence of VE-822 (ATR inhibitor) or Tautomycin (phosphatase inhibitor). Samples were examined via immunoblotting analysis as illustrated in FIG. 9B. For FIG. 9C, CTL or SSB plasmid was added to mock- or Pol alpha-depleted HSS. After 30-min incubation, samples were analyzed via immunoblotting analysis, as illustrated.
as §1
To determine whether a defined SSB structure triggers a DDR pathway, different concentrations of SSB or CTL plasmid structure were added to HSS, followed by immunoblotting analysis after a 30-minute incubation.

The test system of another experiment is SSB repair. Put plainly: SSB repair of SSB plasmid in the HSS system (agarose gel). In kind it is biochemical, Xenopus laevis. To be noted: SSB plasmid in HSS with or without VE-822; circular/(circular+nicked). As to the method: FIGS. 6A-6D illustrate verification and analysis of the defined DNA structures. FIG. 6A is an image verifying the defined SSB structure on agarose gel (Ethidium bromide staining). CTL plasmid was added to HSS for different time. Then DNA samples were isolated and treated with or without Sbfl, and analyzed on agarose gel (Ethidium bromide staining) as shown in FIG. 6B. For FIG. 6C, the SSB plasmid was added to HSS with or without VE-822 for different time as indicated. SSB repair products were isolated and examined on agarose gel (Ethidium bromide staining). FIG. 6D is a graph quantifying SSB repair capacity (circular/(circular+nicked)×100) with or without VE-822 treatment in the HSS system from FIG. 6C.
Nuclease-free water was added to each reaction of HSS that was incubated with SSB or DSB plasmid to a total of 300 μL. Equal volume of phenol-chloroform was added to the mixture and resuspended up and down 5 times and spin for 5 minutes at 13,000 rpm at room temperature. The top aqueous layer was transferred to a new tube and repeat phenol-chloroform extraction. […] Then the purified DNA repair products were analyzed on agarose gel and stained with ethidium bromide. […]

The subject of experiment [3] is ATR-Chk1 DDR pathway. The experiment is described as follows: Hydrogen peroxide-induced Chk1 phosphorylation in HSS supplemented with sperm chromatin (immunoblotting). In kind it is biochemical, Xenopus laevis. The note with it: HSS with sperm chromatin and hydrogen peroxide, 45-min incubation. How it is done: FIGS. 8A-8G illustrate that the ATR-Chk1 DNA damage response pathway is induced by the defined SSB structure in the HSS system. CTL or SSB plasmid was added to HSS at different concentrations as indicated, and incubated for 30 minutes. Extracts were examined via immunoblotting analysis for Chk1 phosphorylation (i.e., Chk1 P-Ser344) and total Chk1 (FIG. 8A). CTL or SSB plasmid was added to HSS at a final concentration of 75 ng/μL. After different time of incubation at room temperature, the extracts were examined via immunoblotting analysis (FIG. 8B). ATR inhibitor VE-822, ATM inhibitor KU55933, DNA-PK inhibitor NU7441, or recombinant geminin was added to HSS supplemented with CTL or SSB plasmid at a final concentration of […] for 30 minutes. Geminin or roscovitine was added to HSS supplemented with sperm chromatin and hydrogen peroxide. After a 45-min incubation, extracts were examined via immunoblotting analysis as indicated (FIG. 8F). CTL, SSB, or DSB plasmid was added to HSS at different concentrations as indicated. Samples were examined via immunoblotting analysis (FIG. 8G).
The care and use of Xenopus laevis was approved by the Institutional Animal Care and Use Committee (IACUC) of the University of North Carolina at Charlotte. […] ImageQuat software was used to quantify the DNA synthesis from HSS/NPE system. […]

Turning to `CO[C@H]([C@H](O)CC(=O)[C@@H](C)[C@@H](O)CC[C@@H](C)[C@@H]1O[C@]2(CC[C@@H](C)[C@H](CC[C@H](C)C(C)=O)O2)CC[C@@H]1C)[C@H](OC(=O)C[C@@H](O)C1=C(C)C(=O)OC1=O)C(C)C` [tautomycin], in the experiment on ATR-Chk1 DDR pathway [1] (with the presence of tautomycin, no detectable Chk1 phosphorylation without it), the “SSB plasmid-triggered Chk1 phosphorylation in NPE” value was “very robust”.
`CNCc1ccc(-c2cc(-c3nc(-c4ccc(S(=O)(=O)C(C)C)cc4)cnc3N)on2)cc1` [VE-822]: in the experiment with U2OS cells, the “hydrogen peroxide-induced Chk1 phosphorylation” value is “prevented” and the “hydrogen peroxide-induced RPA32 phosphorylation” value was “prevented”. The “SSB-induced Chk1 phosphorylation (Chk1 P-S344)” value in the experiment with ATR-Chk1 DDR pathway [2] is on record as “compromised”. Moreover, in the experiment with ATR-Chk1 DDR pathway [2] (HSS with SSB plasmid, 30 min), the “SSB-induced RPA32 phosphorylation” value is listed as “sensitive” and the “SSB-induced Rad17 phosphorylation” value is on record as “sensitive”. Moreover, the “Chk1 phosphorylation events in NPE (SSB plasmid- and CTL plasmid-induced)” value in the experiment on ATR-Chk1 DDR pathway [1] (NPE with the presence of tautomycin) is given as “inhibited”. Further, in the experiment on SSB repair, the “SSB repair in the HSS system” value is on record as “compromised”.
Consider `C[C@@]1(CO)[C@H](O)CC[C@@]2(C)[C@H]1CC[C@H]1C[C@@H]3C[C@@]12CC[C@]3(O)CO` [aphidicolin], for which the “SSB-induced Chk1 phosphorylation (Chk1 P-S344)” value with ATR-Chk1 DDR pathway [2] is “not affected”.
Turning to `CC[C@H](CO)Nc1nc(NCc2ccccc2)c2ncn(C(C)C)c2n1` [rescovitine], the “hydrogen peroxide-induced Chk1 phosphorylation in the HSS” value with ATR-Chk1 DDR pathway [3] is “had no effect”.
For `Nc1ccc2c3c(cccc13)C(=O)NC2=O` [4-Amino-1,8-naphthalimide], the “SSB-induced Chk1 phosphorylation (Chk1 P-S344)” value in the experiment with ATR-Chk1 DDR pathway [2] was “enhanced”.
The same measure, in the same setting: next, `O=c1cc(N2CCOCC2)oc2c(-c3cccc4c3sc3ccccc34)cccc12` [NU7441]: “almost had no effect”; `O=c1cc(-c2cccc3c2Sc2ccccc2S3)oc(N2CCOCC2)c1` [KU55933]: “almost had no effect”.

B1: geminin: MCM helicase inhibitor recombinant geminin protein (protein, UniProt O75496 1-209, looked up)
Geminin: MNPSMKQKQEEIKENIKNSSVPRRTLKMIQPSASGSLVGRENELSAGLSKRKHRNDHLTSTTSSPGVIVPESSENKNLGGVTQESFDLMIKENPSSQYWKEVAEKRRKALYEALKENEKLHKEIEQKDNEIARLKKENKELAEVAEHVQYMAELIERLNGEPLDNFESLDNQEFDSEEETVEDSLVEDSEIGTCAEGTVSSSTDAKPCI
For the molecule B1, the “SSB-induced Chk1 phosphorylation (Chk1 P-S344)” value with ATR-Chk1 DDR pathway [2] was “not impaired”. Further, the “hydrogen peroxide-induced Chk1 phosphorylation in the HSS” value in the experiment with ATR-Chk1 DDR pathway [3] is recorded as “had no effect”.
